One experiment concerns the target T1, HiBit-BRM fusion protein (Homo sapiens, UniProt P51531).
T1 construct: expressed in transfected cells
Put plainly: HiBiT-BRM cell-based degradation assay (Nano-Glo HiBiT Lytic Detection, 24 h). The conditions noted are these: stable HeLa cell line expressing HiBiT-BRM; for DC50: read-out: BRM HiBit Degradation IC50. The method, boiled down:
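A stable HeLa line expressing HiBiT-BRM was treated for 24 h with compound in a 10-point, 3-fold series (30 μM final top dose). Remaining HiBiT-BRM was read by lytic LgBiT complementation luminescence. % degradation was normalised to DMSO (high control) and 2 μM reference BRM/BRG1 degrader (low control).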

Experiment [1] concerns the target T2, HiBit-BRG1 fusion protein (Homo sapiens, UniProt P51532).
T2 construct: expressed in transfected cells
Briefly: HiBiT-BRG1 cell-based degradation assay (Nano-Glo HiBiT Lytic Detection, 24 h). The conditions noted are these: stable HeLa cell line expressing HiBit-BRG1 and LgBit; for Dmax: read-out: BRG1 HiBit Degradation Maximum (%); for DC50: read-out: BRMG1 HiBit Degradation IC50. Summed up:
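HeLa cells stably expressing HiBit-BRG1 and LgBit, treated 24 h with 3-fold dilutions (10 points, duplicate, 30 μM final top dose). Luminescence read after Nano-Glo HiBiT lytic reagent; % degradation scaled between DMSO (high) and 2 μM reference BRM/BRG1 degrader (low control).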

T2 sequence (P51532 whole entry, the tested form may be a part): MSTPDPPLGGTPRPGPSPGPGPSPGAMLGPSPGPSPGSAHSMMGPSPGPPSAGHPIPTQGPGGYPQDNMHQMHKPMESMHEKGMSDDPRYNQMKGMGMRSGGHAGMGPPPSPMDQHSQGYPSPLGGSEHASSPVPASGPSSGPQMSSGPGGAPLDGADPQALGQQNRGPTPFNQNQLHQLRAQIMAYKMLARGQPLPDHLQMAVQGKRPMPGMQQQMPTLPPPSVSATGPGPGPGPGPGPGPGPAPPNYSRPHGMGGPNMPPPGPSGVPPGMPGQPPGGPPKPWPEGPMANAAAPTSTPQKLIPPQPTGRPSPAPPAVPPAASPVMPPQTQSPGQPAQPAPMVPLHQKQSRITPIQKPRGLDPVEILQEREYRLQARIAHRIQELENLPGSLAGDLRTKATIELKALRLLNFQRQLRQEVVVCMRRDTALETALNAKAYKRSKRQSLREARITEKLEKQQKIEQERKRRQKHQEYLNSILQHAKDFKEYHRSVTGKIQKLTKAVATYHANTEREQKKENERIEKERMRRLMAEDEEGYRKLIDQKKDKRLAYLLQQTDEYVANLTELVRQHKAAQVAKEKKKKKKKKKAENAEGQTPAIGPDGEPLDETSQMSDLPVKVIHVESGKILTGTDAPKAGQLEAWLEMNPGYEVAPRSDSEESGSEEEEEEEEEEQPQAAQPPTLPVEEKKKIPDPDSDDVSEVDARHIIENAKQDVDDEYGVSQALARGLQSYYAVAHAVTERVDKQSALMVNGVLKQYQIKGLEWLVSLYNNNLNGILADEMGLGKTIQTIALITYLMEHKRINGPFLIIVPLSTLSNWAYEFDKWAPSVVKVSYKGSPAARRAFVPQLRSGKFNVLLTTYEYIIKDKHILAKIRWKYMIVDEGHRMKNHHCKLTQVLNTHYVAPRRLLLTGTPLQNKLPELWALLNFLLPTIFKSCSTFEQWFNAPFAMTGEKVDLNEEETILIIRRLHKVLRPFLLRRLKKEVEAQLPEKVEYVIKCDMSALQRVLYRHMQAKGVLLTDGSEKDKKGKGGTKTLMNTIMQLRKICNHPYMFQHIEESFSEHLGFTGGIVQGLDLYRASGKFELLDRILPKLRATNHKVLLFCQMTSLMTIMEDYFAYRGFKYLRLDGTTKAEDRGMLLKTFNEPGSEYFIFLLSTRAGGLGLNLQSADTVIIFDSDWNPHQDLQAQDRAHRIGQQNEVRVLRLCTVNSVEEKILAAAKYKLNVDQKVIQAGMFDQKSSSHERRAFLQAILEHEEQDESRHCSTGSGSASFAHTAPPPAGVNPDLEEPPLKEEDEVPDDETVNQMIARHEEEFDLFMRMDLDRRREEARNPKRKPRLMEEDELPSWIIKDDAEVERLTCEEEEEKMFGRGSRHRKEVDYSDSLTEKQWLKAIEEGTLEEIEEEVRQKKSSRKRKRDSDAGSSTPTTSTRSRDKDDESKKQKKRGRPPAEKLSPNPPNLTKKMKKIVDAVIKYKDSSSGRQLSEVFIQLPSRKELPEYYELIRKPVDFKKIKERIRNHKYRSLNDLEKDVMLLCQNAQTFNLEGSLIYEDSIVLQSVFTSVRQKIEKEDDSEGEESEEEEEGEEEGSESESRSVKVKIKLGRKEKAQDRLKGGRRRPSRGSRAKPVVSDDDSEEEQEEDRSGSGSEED
T1 sequence (P51531 whole entry, the tested form may be a part): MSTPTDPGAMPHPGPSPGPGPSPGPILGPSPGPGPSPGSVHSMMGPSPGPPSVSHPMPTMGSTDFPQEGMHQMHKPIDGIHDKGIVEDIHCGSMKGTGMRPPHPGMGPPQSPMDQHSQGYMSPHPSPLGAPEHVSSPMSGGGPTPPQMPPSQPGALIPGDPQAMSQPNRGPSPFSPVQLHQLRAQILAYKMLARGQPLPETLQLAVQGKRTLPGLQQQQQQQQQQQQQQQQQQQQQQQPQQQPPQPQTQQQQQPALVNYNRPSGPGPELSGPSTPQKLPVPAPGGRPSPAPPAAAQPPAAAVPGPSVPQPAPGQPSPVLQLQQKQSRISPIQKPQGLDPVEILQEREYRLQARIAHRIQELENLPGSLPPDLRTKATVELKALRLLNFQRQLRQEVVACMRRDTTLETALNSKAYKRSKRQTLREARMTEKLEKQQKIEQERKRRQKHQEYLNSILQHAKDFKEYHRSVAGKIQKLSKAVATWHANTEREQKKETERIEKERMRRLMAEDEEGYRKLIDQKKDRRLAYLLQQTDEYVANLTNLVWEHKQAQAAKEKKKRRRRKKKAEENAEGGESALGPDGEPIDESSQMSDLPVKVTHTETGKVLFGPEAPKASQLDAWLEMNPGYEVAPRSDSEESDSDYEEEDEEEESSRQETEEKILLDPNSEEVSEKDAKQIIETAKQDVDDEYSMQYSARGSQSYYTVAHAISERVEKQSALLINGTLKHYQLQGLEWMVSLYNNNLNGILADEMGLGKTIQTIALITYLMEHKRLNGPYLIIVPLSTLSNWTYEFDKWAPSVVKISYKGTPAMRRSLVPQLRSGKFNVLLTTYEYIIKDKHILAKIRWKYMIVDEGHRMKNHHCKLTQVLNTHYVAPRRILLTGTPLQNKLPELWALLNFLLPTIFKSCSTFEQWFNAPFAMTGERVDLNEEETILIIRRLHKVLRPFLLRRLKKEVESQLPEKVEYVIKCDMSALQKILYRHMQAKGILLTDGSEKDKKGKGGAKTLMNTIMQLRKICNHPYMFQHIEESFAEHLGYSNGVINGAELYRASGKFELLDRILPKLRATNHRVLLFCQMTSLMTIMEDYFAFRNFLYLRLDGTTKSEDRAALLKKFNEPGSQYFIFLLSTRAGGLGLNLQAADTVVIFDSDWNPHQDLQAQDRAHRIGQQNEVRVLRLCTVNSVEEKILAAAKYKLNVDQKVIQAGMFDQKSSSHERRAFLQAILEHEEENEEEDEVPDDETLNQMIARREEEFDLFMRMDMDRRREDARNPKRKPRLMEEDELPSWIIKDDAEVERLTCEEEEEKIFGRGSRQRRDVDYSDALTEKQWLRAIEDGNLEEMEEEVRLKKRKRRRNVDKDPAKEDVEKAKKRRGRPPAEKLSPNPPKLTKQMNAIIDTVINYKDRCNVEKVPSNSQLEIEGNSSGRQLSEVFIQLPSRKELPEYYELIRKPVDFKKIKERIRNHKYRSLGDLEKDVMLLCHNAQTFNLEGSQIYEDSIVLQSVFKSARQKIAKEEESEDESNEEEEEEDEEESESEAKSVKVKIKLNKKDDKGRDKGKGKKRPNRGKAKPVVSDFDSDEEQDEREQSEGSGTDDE

For the compound `Cc1ncsc1-c1ccc([C@H](C)NC(=O)[C@@H]2C[C@@H](O)CN2C(=O)[C@@H](c2cc(-c3cnc(N4C[C@@H]5[C@H](C4)[C@H]5c4sc5nnc(-c6ccccc6O)cc5c4C)nc3)no2)C(C)C)cc1` (stereo in doubt) [Compound 40, (2S,4R)-4-hydroxy-1-((R)-2-(3-(2-((1R,5R)-6-(3-(2-hydroxyphenyl)-5-methylthieno[2,3-c]pyridazin-6-yl)-3-azabicyclo[3.1.0]hexan-3-yl)pyrimidin-5-yl)isoxazol-5-yl)-3-methylbutanoyl)-N-((S)-1-(4-(4-methylthiazol-5-yl)phenyl)ethyl)pyrrolidine-2-carboxamide], on HiBit-BRM fusion protein, the “BRM HiBit Degradation Maximum (%)” value is recorded as “A (“A” indicates maximum degradation ≥75%)” and the DC50 is < 10 nM. In addition, in experiment [1], the Dmax was < 50% and the DC50 was > 100 nM.
On to `Cc1ncsc1-c1ccc([C@H](C)NC(=O)[C@@H]2C[C@@H](O)CN2C(=O)[C@@H](c2cc(N3CCN(c4ncc(-c5sc6nnc(-c7ccccc7O)cc6c5C)cn4)CC3)no2)C(C)C)cc1` (single isomer, unassigned) [Compound 31], for which, at HiBit-BRM fusion protein, the “BRM HiBit Degradation Maximum (%)” value is recorded as “B (“B” indicates maximum degradation ≥50%)” and the DC50 is > 10 nM. Moreover, in experiment [1], the Dmax is < 50% and the DC50 was > 1000 nM.
For `Cc1ncsc1-c1ccc([C@H](C)NC(=O)[C@@H]2C[C@@H](O)CN2C(=O)[C@@H](c2cc(Oc3cnc(N4CCC(c5sc6nnc(-c7ccccc7O)cc6c5C)CC4)nc3)no2)C(C)C)cc1` (single isomer, unassigned) [Compound 51], on HiBit-BRM fusion protein, the “BRM HiBit Degradation Maximum (%)” value is recorded as “A (“A” indicates maximum degradation ≥75%)” and the DC50 is > 10 nM. In addition, in experiment [1], the Dmax is < 50% and the DC50 was > 1000 nM.
The like results for `Cc1ncsc1-c1ccc([C@H](C)NC(=O)[C@@H]2C[C@@H](O)CN2C(=O)[C@@H](c2cc(-c3ccc(N4CCC(c5sc6nnc(-c7ccccc7O)cc6c5C)CC4)nn3)no2)C(C)C)cc1` [Compound 57, (2S,4R)-4-hydroxy-1-((R)-2-(3-(6-(4-(3-(2-hydroxyphenyl)-5-methylthieno[2,3-c]pyridazin-6-yl)piperidin-1-yl)pyridazin-3-yl)isoxazol-5-yl)-3-methylbutanoyl)-N-((S)-1-(4-(4-methylthiazol-5-yl)phenyl)ethyl)pyrrolidine-2-carboxamide] were, in that order, “A (“A” indicates maximum degradation ≥75%)”, < 10 nM, < 50% and > 1000 nM.
Regarding `Cc1ncsc1-c1ccc([C@H](C)NC(=O)[C@@H]2C[C@@H](O)CN2C(=O)[C@@H](c2cc(N3CC4(CCC(c5cc6cc(-c7ccccc7O)nnc6s5)CC4)C3)no2)C(C)C)cc1` [Compound 89, (2S,4R)-4-hydroxy-1-((R)-2-(3-(7-(3-(2-hydroxyphenyl)thieno[2,3-c]pyridazin-6-yl)-2-azaspiro[3.5]nonan-2-yl)isoxazol-5-yl)-3-methylbutanoyl)-N-((S)-1-(4-(4-methylthiazol-5-yl)phenyl)ethyl)pyrrolidine-2-carboxamide], on HiBit-BRM fusion protein, the “BRM HiBit Degradation Maximum (%)” value is “A (“A” indicates maximum degradation ≥75%)” and the DC50 is < 10 nM. Moreover, in experiment [1], the Dmax is > 75% and the DC50 was > 10 nM.
As for `Cc1ncsc1-c1ccc([C@H](C)NC(=O)[C@@H]2C[C@@H](O)CN2C(=O)[C@@H](c2cc(-c3ccc(N4CCC(c5sc6nnc(-c7ccccc7O)cc6c5C)CC4)c(F)c3)no2)C(C)C)cc1` [Compound 103, (2S,4R)-1-((R)-2-(3-(3-fluoro-4-(4-(3-(2-hydroxyphenyl)-5-methylthieno[2,3-c]pyridazin-6-yl)piperidin-1-yl)phenyl)isoxazol-5-yl)-3-methylbutanoyl)-4-hydroxy-N-((S)-1-(4-(4-methylthiazol-5-yl)phenyl)ethyl)pyrrolidine-2-carboxamide], at HiBit-BRM fusion protein, the “BRM HiBit Degradation Maximum (%)” value was “A (“A” indicates maximum degradation ≥75%)” and the DC50 is < 10 nM. The Dmax in experiment [1] was < 50%.
`Cc1ncsc1-c1ccc([C@H](C)NC(=O)[C@@H]2C[C@@H](O)CN2C(=O)[C@@H](c2cc(N3CCC(c4cnc(N5CCC(c6sc7nnc(-c8ccccc8O)cc7c6C)CC5)nc4)CC3)no2)C(C)C)cc1` (single isomer, unassigned) [Compound 60]: on HiBit-BRM fusion protein, the “BRM HiBit Degradation Maximum (%)” value was “A (“A” indicates maximum degradation ≥75%)” and the DC50 is < 10 nM. In experiment [1], the Dmax is > 50% and the DC50 was > 10 nM.
As to `Cc1ncsc1-c1ccc([C@H](C)NC(=O)[C@@H]2C[C@@H](O)CN2C(=O)[C@@H](c2cc(-c3cnc(N4CC5(CC(c6cc7nnc(-c8ccccc8O)cc7s6)C5)C4)nc3)no2)C(C)C)cc1` [Compound 17, (2S,4R)-4-hydroxy-1-((R)-2-(3-(2-(6-(3-(2-hydroxyphenyl)thieno[3,2-c]pyridazin-6-yl)-2-azaspiro[3.3]heptan-2-yl)pyrimidin-5-yl)isoxazol-5-yl)-3-methylbutanoyl)-N-((S)-1-(4-(4-methylthiazol-5-yl)phenyl)ethyl)pyrrolidine-2-carboxamide], on HiBit-BRM fusion protein, the “BRM HiBit Degradation Maximum (%)” value is recorded as “A (“A” indicates maximum degradation ≥75%)” and the DC50 was < 10 nM. Further, in experiment [1], the Dmax is > 75% and the DC50 was > 10 nM.
For the compound `Cc1cc(N2CC[C@H](c3sc4nnc(-c5ccccc5O)cc4c3C)C2)ncc1-c1cc([C@H](C(=O)N2C[C@H](O)C[C@H]2C(=O)N[C@@H](C)c2ccc(-c3scnc3C)cc2)C(C)C)on1` [Compound 97, (2S,4R)-4-hydroxy-1-((R)-2-(3-(6-((S)-3-(3-(2-hydroxyphenyl)-5-methylthieno[2,3-c]pyridazin-6-yl)pyrrolidin-1-yl)-4-methylpyridin-3-yl)isoxazol-5-yl)-3-methylbutanoyl)-N-((S)-1-(4-(4-methylthiazol-5-yl)phenyl)ethyl)pyrrolidine-2-carboxamide], at HiBit-BRM fusion protein, the “BRM HiBit Degradation Maximum (%)” value is “A (“A” indicates maximum degradation ≥75%)” and the DC50 is > 10 nM. In addition, the Dmax in experiment [1] was < 50%.
As to `Cc1ncsc1-c1ccc([C@H](C)NC(=O)[C@@H]2C[C@@H](O)CN2C(=O)[C@@H](c2cc([C@H]3CC[C@@H](c4cnc(N5CCC(c6sc7nnc(-c8ccccc8O)cc7c6C)CC5)nc4)CC3)no2)C(C)C)cc1` (single isomer, unassigned) [Compound 65], on HiBit-BRM fusion protein, the “BRM HiBit Degradation Maximum (%)” value is recorded as “A (“A” indicates maximum degradation ≥75%)” and the DC50 is > 10 nM. For the same compound, in experiment [1], the Dmax is < 50% and the DC50 was > 1000 nM.
